“And” between values parts separate entries of the source, which are not always exact repeats. Equal values may be shown once. Where a name gives a salt, the structure may show the parent alone.
Columns and labels:
Shay's ulcer = Shay's ulcer (pylorus ligation), inhibitory effect, rats; assay type: in vivo, rat (male Donryu strain); conditions: P.O.; for Ulcer index (total area of all lesions) / % Inhibition: 1,000 mg/kg; for Ulcer index (total area of all lesions): immediately after pylorus ligation; for inhibition in vivo at 1000 mg/kg: 14 h, 1,000 mg/kg
Procedure: (§1) It will be noted that as control compounds for the purposes of comparison, use was made of L-carnosine, L-glutamine, N-acetyl-L-glutamine aluminum and aluminum sucrose sulfate which are known to have an anti-ulcer effect. The anti-ulcer effects and degrees of toxicity of the N-acylcarnosine aluminum compounds according to the invention were determined using rats in which instances various gastric ulcer models of rats were utilized to estimate the anti-ulcer effects.
Shay's ulcer: Groups of ten male Donryu strain rats each weighing 210 to 230 g were deprived of food for 48 hours. The pylorus of each rat was ligated according to the method of Shay et al [Gastroenterology, 5, 43-61 (1945)]. Each of the animals was allowed to stand abstained from food and water for further 14 hours and then sacrificed to remove its stomach. After collection of the gastric juice, the ulcerated area (mm^2) in the forestomach of each rat was measured under a dissecting microscope (10x). The total area (mm^2) of all the lesions of each rat was indicated as an ulcer index. Test medicine samples were given orally immediately after the pylorus ligation.

Stress ulcer = Stress ulcer (water immersion restraint), inhibitory effect, rats; assay type: in vivo, rat (male Donryu strain); conditions: P.O.; for Ulcer index (total length of all lesions): ten minutes before immersion; for % Inhibition: vs control of the same run
Procedure: (§2) The anti-ulcer effects and degrees of toxicity of the N-acylcarnosine aluminum compounds according to the invention were determined using rats in which instances various gastric ulcer models of rats were utilized to estimate the anti-ulcer effects.
Stress ulcer: Groups of ten male Donryu strain rats each weighing 240 to 260 g were placed in a stress cage which served to immobilize the animals therein and then immersed in a water bath of 23° C. on a level with the xiphoid process according to the method of K. Takagi et al [Jap. […] Seven hours after the immersion, each of the animals was withdrawn from the water bath and immediately sacrificed by a blow on the head, followed by removal of the stomach of each rat. The stomach was slightly inflated by injecting a 1% formalin solution and then immediately immersed in a 1% formalin solution, followed by incising the stomach along its greater curvature to measure the length (mm) of each lesion in the glandular portion under a dissecting microscope (10x). The total length (mm) of all the lesions of each rat was indicated as an ulcer index. Test medicine samples were given orally ten minutes before the immersion in water.

Aspirin-induced ulcer = experiment: Aspirin-induced ulcer, inhibitory effect, rats; assay type: in vivo, rat (male Donryu strain); conditions: 1,000 mg/kg, P.O.; for Ulcer index (total length of all lesions): immediately after pylorus ligation, aspirin 100 mg/kg; for % Inhibition: vs control of the same run
Procedure: as §1
Aspirin-induced ulcer: Groups of ten male Donryu strain rats each weighing 220 to 230 g were deprived of food for 24 hours. The pylorus of each rat was ligated under ether anethesia according to the method of S. Okabe et al [Jap. J. Pharmac. 24, 357-361 (1974)]. After the pylorus ligation, aspirin (100 mg/kg) was administered orally to each rat. Seven hours after the administration, each of the animals was sacrificed under ether anesthesia to remove its stomach. After collection of the gastric juice and treatment with a 1% formalin solution, the length (mm) of each lesion formed in the glandular portion was measured. The total length (mm) of all the lesions of each rat was indicated as an ulcer index. Test medicine samples were given orally immediately after the pylorus ligation.

[1] = tested on: Indomethacin-induced ulcer; experiment: Indomethacin-induced ulcer, inhibitory effect, rats; assay type: in vivo, rat (male Donryu strain); conditions: 300 mg/kg, P.O.; for Ulcer index (total length of all lesions): ten minutes before pylorus ligation, indomethacin 25 mg/kg s.c.; for % Inhibition: vs control of the same run
Procedure: as §1
Indomethacin-induced ulcer: Groups of ten male Donryu strain rats each weighing 200 to 215 g were deprived of food for 24 hours. Then, the pylorus was ligated under ether anethesia, after which indomethacin was administered subcutaneously in an amount of 25 mg/kg to each rat. Seven hours after the administration, each of the animals was scarificed under ether anethesia to remove its stomach, followed by immersion in a 1% formalin solution for ten minutes. The stomach which had been semi-fixed was incised along its greater curvature, and the length (mm) of each lesion formed in the mucous membrane was measured under a dissecting microscope (10×). The total length (mm) of all the lesions of each rat was indicated as an ulcer index. Test medicine samples were given orally ten minutes before the pylorus legation.

Histamine-induced ulcer = experiment: Histamine-induced ulcer, inhibitory effect, rats; assay type: in vivo, rat (male Donryu strain); conditions: P.O.; for Ulcer index (total length of all lesions): before histamine phosphate 300 mg/kg i.p.; for % Inhibition: vs control of the same run
Procedure: as §2
Histamine-induced ulcer: Groups of ten male Donryu strain rats each weighing 210 to 230 g were deprived of food for 48 hours and then administered intraperitoneally with histamine phosphate (300 mg/kg). Four hours after the administration, each of the animals was sacrificed under ether anesthesia, followed by removal of the stomach and immersion in a 1% formalin solution for ten minutes. The stomach which had been semi-fixed was incised along the greater curvature, and the length (mm) of each lesion was measured under a dissecting microscope (10×). The total length (mm) of all the lesions of each rat was indicated as an ulcer index. Test medicine samples were given orally before the histamine administration.

[2] = Acute toxicity, oral, rats; assay type: in vivo; conditions: rat, in vivo, po; P.O., male rats, observed seven days
Procedure: (§3) Acute toxicity: Male and female Wister strain rats each weighing 150 to 200 g were divided into two groups, respectively, each group consisting of ten rats, and were administered orally with some of the N-acylcarnosine aluminum compounds according to the invention. The thus treated rats were visually observed for seven days after the administration.

rats = experiment: Acute toxicity, oral, rats; assay type: in vivo; conditions: P.O., female rats, observed seven days; 10080 min
Procedure: as §3

[3] = Rattus norvegicus, po, vs control of the same run

| Molecule | Ulcer index (total area of all lesions) (Shay's ulcer) | inhibition in vivo at 1000 mg/kg (Shay's ulcer; [3]) | Ulcer index (total length of all lesions) (Stress ulcer; 1,000 mg/kg) | % Inhibition (Stress ulcer; 1,000 mg/kg) | Ulcer index (total length of all lesions) (Aspirin-induced ulcer) | % Inhibition (Aspirin-induced ulcer) | Ulcer index (total length of all lesions) [1] | % Inhibition [1] | Ulcer index (total length of all lesions) (Histamine-induced ulcer; 300 mg/kg) | % Inhibition (Histamine-induced ulcer; 300 mg/kg) | % Inhibition (Shay's ulcer; vs control of the same run) | further results |
| --- | --- | --- | --- | --- | --- | --- | --- | --- | --- | --- | --- | --- |
| CC(=O)NCCC(=O)NC(Cc1c[nH]cn1)C(=O)O (racemic) [A, N-acetyl-DL-carnosine aluminum salt] | 0.5 ± 0.5 mm^2 | 79.2% | 4.4 ± 2.2 mm | 71.1% | 0.6 ± 0.6 mm | 96.6% | 6.5 ± 2.2 mm | 60.1% | 9.6 ± 1.8 mm | 60.2% |  | Ulcer index (total length of all lesions) (Stress ulcer; 300 mg/kg): 8.0 ± 2.8 mm; % Inhibition (Stress ulcer; 300 mg/kg): 47.4%; LD50 at 168 h [2]: > 10000 mg/kg; LD50 (rats): > 10,000 mg/kg |
| CC(=O)NCCC(=O)N[C@@H](Cc1c[nH]cn1)C(=O)O [B, N-acetyl-L-carnosine aluminum salt] | 0.6 ± 0.4 mm^2 | 76% | 4.8 ± 2.6 mm | 72.6% | 0.6 ± 0.6 mm | 96.4% | 6.4 ± 2.2 mm | 61.9% | 9.1 ± 1.9 mm | 60.4% |  | Ulcer index (total length of all lesions) (Stress ulcer; 300 mg/kg): 9.2 ± 3.0 mm; % Inhibition (Stress ulcer; 300 mg/kg): 47.4%; LD50 at 168 h [2]: > 10000 mg/kg; LD50 (rats): > 10,000 mg/kg |
| CC(=O)NCCC(=O)N[C@@H](Cc1c[nH]cn1)C(=O)O [C, N-acetyl-L-carnosine aluminum salt] | 1.0 ± 0.7 mm^2 |  |  |  |  |  |  |  |  |  | 65.5% |  |
| CC(=O)NCCC(=O)N[C@@H](Cc1c[nH]cn1)C(=O)O [D, N-acetyl-L-carnosine aluminum salt] | 0.9 ± 0.9 mm^2 |  |  |  |  |  |  |  |  |  | 69.0% |  |
| CCC(=O)NCCC(=O)N[C@@H](Cc1c[nH]cn1)C(=O)O [E, N-propionyl-L-carnosine aluminum salt] | 0.7 ± 0.5 mm^2 | 77.4% |  |  |  |  |  |  |  |  |  |  |
| CCC(=O)NCCC(=O)N[C@@H](Cc1c[nH]cn1)C(=O)O [F, N-propionyl-L-carnosine aluminum salt] | 0.9 ± 0.7 mm^2 |  |  |  |  |  |  |  |  |  | 71.0% |  |
| CCCCCCC(=O)NCCC(=O)N[C@@H](Cc1c[nH]cn1)C(=O)O [G, N-heptanoyl-L-carnosine aluminum salt] | 0.9 ± 1.0 mm^2 | 71% |  |  |  |  |  |  |  |  |  |  |
| O=C(CCNC(=O)c1ccccc1)N[C@@H](Cc1c[nH]cn1)C(=O)O [H, N-benzoyl-L-carnosine aluminum salt] | 1.0 ± 0.9 mm^2 | 67.7% |  |  |  |  |  |  |  |  |  |  |
| COc1ccccc1C(=O)NCCC(=O)N[C@@H](Cc1c[nH]cn1)C(=O)O [I, N-(o-methoxy)benzoyl-L-carnosine aluminum salt] | 1.1 ± 0.8 mm^2 | 64.5% |  |  |  |  |  |  |  |  |  |  |
| NCCC(=O)N[C@@H](Cc1c[nH]cn1)C(=O)O [L-Carnosine, L-carnosine] |  | 12.5% | 10.7 ± 2.2 mm and 12.1 ± 2.5 mm | 29.6% and 30.9% |  |  | 17.3 ± 3.0 mm and 17.1 ± 3.1 mm | ~ 0% | 17.3 ± 3.2 mm and 18.0 ± 2.7 mm | 28.2% and 21.7% |  | Ulcer index (total length of all lesions) (Stress ulcer; 300 mg/kg): 14.2 ± 3.7 mm and 16.0 ± 4.0 mm; % Inhibition (Stress ulcer; 300 mg/kg): 6.6% and 8.6% |
| NC(=O)CC[C@H](N)C(=O)O [L-Glutamine, L-glutamine] |  | 8.3% |  |  | 6.0 ± 2.2 mm and 4.5 ± 1.5 mm | 66.1% and 73.2% | 9.5 ± 4.1 mm and 9.7 ± 3.9 mm | 41.8% and 42.3% |  |  |  |  |
| CC(=O)N[C@@H](CCC(N)=O)C(=O)O.[Al] [N-Acetyl-L-glutamine aluminum, N-acetyl-L-glutamine aluminum] |  |  |  |  |  |  |  |  |  |  |  | inhibition in vivo at 2000 mg/kg (Shay's ulcer; Rattus norvegicus, po, 14 h, 2,000 mg/kg, vs control of the same run): 67.7%; Ulcer index (total length of all lesions) (Stress ulcer; 2,000 mg/kg): 5.5 ± 4.8 mm; % Inhibition (Stress ulcer; 2,000 mg/kg): 68.6%; Ulcer index (total length of all lesions) (Histamine-induced ulcer; 2,000 mg/kg): 8.5 ± 3.0 mm; % Inhibition (Histamine-induced ulcer; 2,000 mg/kg): 63.0% |
| aluminum sucrose sulfate | 0.8 ± 0.6 mm^2 and 0.9 ± 0.5 mm^2 and 0.7 ± 0.8 mm^2 and 0.8 ± 0.9 mm^2 |  | 6.5 ± 6.0 mm and 7.3 ± 6.8 mm | 56.7% and 58.3% | 3.7 ± 2.1 mm and 2.0 ± 1.1 mm | 79.1% and 88.1% | 7.8 ± 3.0 mm and 7.4 ± 2.8 mm | 52.1% and 56.0% | 14.4 ± 1.5 mm and 10.7 ± 2.1 mm | 40.2% and 53.5% | 72.4% and 71.0% and 71.7% and 68.0% |  |

From patent US4342774A, “N-Acylcarnosine aluminum salt, its preparation, and a digestive ulcer remedy containing such salt” (Nippon Chemiphar Co., Ltd., priority 1979, dated 1982)
